Results published in patent publication US20210393623A1 (Jacobio Pharmaceuticals Co., Ltd., priority 2018, published 2021).

target: T1, SHP2 (Homo sapiens, UniProt Q06124); test: Phosphatase Assay (Single Dose Inhibition); assay type: biochemical; conditions: compound at 0.02 μM (20nM); DiFMUP substrate 12 μM; SHP2 0.5 nM activated with dPEG8 peptide; DMSO control set to 100%; triplicate
T1 sequence (Q06124 1-593): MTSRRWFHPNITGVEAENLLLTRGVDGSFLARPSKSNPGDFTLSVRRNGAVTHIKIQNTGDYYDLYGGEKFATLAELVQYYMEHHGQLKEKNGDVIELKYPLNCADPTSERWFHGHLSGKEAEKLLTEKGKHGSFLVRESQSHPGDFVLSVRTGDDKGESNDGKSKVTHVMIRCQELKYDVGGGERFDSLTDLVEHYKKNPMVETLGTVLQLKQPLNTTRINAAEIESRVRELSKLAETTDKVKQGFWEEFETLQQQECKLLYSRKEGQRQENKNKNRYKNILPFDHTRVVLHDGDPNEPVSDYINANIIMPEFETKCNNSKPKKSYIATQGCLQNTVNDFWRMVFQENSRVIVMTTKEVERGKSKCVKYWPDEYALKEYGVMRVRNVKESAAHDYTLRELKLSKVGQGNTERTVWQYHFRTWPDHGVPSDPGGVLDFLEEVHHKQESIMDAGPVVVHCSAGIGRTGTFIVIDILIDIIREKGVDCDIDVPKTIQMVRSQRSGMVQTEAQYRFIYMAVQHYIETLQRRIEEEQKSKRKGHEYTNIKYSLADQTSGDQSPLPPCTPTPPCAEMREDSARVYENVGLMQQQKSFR
Experimental: Phosphatase Assay (Single Dose Inhibition) Assay Protocol: For single dose inhibition assays using 6,8-difluoro-4-methylumbelliferyl phosphate (DiFMUP) as a substrate, SHP2 samples (diluted to 0.5 nM in reaction buffer) were incubated with dPEG8 peptide for 30 min in reaction buffer[60 mM 3,3-dimethyl glutarate (pH7.2), 75 mM NaCl, 75 mM KCl, and 1 mM EDTA, 0.05% Tween 20, 2mM dithiothreitol (DTT) ] to active the PTP. DMSO [0.5% (v/v)] or compounds (20nM) were added to the mixture and incubated for 30 min at room temperature. Reactions were initiated by the addition of DiFMUP (12 μM; total reaction volume of 100 μL), and the fluorescence (excitation at 340 nm, emission at 450 nm) of the resulting solutions was measured on a 2104-0020 EnVision Xcite Multilabel Reader (PerkinElmer) after 30min. The experiment is carried out in triplicate. The value for the control sample (DMSO) was set to 100%, and the values for the compound-treated samples were expressed as activity relative to the control sample.

Molecule | inhibition at 0.02 µM | SHP2 inhibition(%)
Cc1nc(N2CCC3(CC2)Cc2ncccc2[C@H]3N)c(C#N)nc1-c1cccc(Cl)c1Cl [Example 26, (S)-3-(5-amino-5,7-dihydrospiro[cyclopenta[b]pyridine-6,4′-piperidin]-1′-yl)-6-(2,3-dichlorophenyl)-5-methylpyrazine-2-carbonitrile] | 67% | 
Cc1nc(N2CCC3(CC2)Cc2ncccc2[C@H]3N)c(C(N)=O)nc1-c1cccc(Cl)c1Cl [Example 27, (S)-3-(5-amino-5,7-dihydrospiro[cyclopenta[b]pyridine-6,4′-piperidin]-1′-yl)-6-(2,3-dichlorophenyl)-5-methylpyrazine-2-carboxamide] | 79% | 
Cc1nc(N2CCC3(CC2)Cc2ncccc2[C@H]3N)c(O)nc1-c1cccc(Cl)c1Cl [Example 28, (S)-3-(5-amino-5,7-dihydrospiro[cyclopenta[b]pyridine-6,4′-piperidin]-1′-yl)-6-(2,3-dichlorophenyl)-5-methylpyrazin-2-ol] | 74% | 
Nc1nc(N2CCC3(CC2)Cc2ncccc2[C@H]3N)c(Br)nc1Sc1cccc(Cl)c1Cl [Example 29, (S)-1′-(6-amino-3-bromo-5-((2,3-dichlorophenyl)thio)pyrazin-2-yl)-5,7-dihydrospiro[cyclopenta[b]pyridine-6,4′-piperidin]-5-amine] | 68% | 
N#Cc1nc(Sc2cccc(Cl)c2Cl)c(N)nc1N1CCC2(CC1)Cc1ncccc1[C@H]2N [Example 30, (S)-5-amino-3-(5-amino-5,7-dihydrospiro[cyclopenta[b]pyridine-6,4′-piperidin]-1′-yl)-6-((2,3-dichlorophenyl)thio)pyrazine-2-carbonitrile] | 80% | 
NC(=O)c1nc(Sc2cccc(Cl)c2Cl)c(N)nc1N1CCC2(CC1)Cc1ncccc1[C@H]2N [Example 31, (S)-5-amino-3-(5-amino-5,7-dihydrospiro[cyclopenta[b]pyridine-6,4′-piperidin]-1′-yl)-6-((2,3-dichlorophenyl)thio)pyrazine-2-carboxamide] | 82% | 
Nc1nc(N2CCC3(CC2)Cc2ncccc2[C@H]3N)ccc1Sc1ccnc(N)c1Cl [Example 32, (S)-1′-(6-amino-5-((2-amino-3-chloropyridin-4-yl)thio)pyridin-2-yl)-5,7-dihydrospiro[cyclopenta[b]pyridine-6,4′-piperidin]-5-amine] | 75% | 
Nc1nccc(Sc2ccc(N3CCC4(CC3)Cc3ncccc3[C@H]4N)cn2)c1Cl [Example 33, (S)-1′-(6-((2-amino-3-chloropyridin-4-yl)thio)pyridin-3-yl)-5,7-dihydrospiro[cyclopenta[b]pyridine-6,4′-piperidin]-5-amine] | 70% | 
Cn1c(N2CCC3(CC2)Cc2ncccc2[C@H]3N)nc2[nH]nc(-c3cccc(Cl)c3Cl)c2c1=O [Example 36, (S)-6-(5-amino-5,7-dihydrospiro[cyclopenta[b]pyridine-6,4′-piperidin]-1′-yl)-3-(2,3-dichlorophenyl)-5-methyl-1,5-dihydro-4H-pyrazolo[3,4-d]pyrimidin-4-one] | 88% | 
Cn1c(N2CCC3(CC2)Cc2ccc(F)cc2[C@H]3N)nc2[nH]nc(-c3cccc(Cl)c3Cl)c2c1=O [Example 37, (S)-6-(1-amino-6-fluoro-1,3-dihydrospiro[indene-2,4′-piperidin]-1′-yl)-3-(2,3-dichlorophenyl)-5-methyl-1,5-dihydro-4H-pyrazolo[3,4-d]pyrimidin-4-one] | 68% | 
Cc1ccc(-c2n[nH]c3nc(N4CCC5(CC4)Cc4cc(F)c(F)c(F)c4[C@H]5N)n(C)c(=O)c23)s1 [Example 38, (S)-6-(1-amino-5,6,7-trifluoro-1,3-dihydrospiro[indene-2,4′-piperidin]-1′-yl)-5-methyl-3-(5-methylthiophen-2-yl)-1,5-dihydro-4H-pyrazolo[3,4-d]pyrimidin-4-one] | 53% | 
N[C@@H]1c2cccnc2CC12CCN(c1nc3[nH]cc(-c4cccc(Cl)c4Cl)c3c(=O)[nH]1)CC2 [Example 39, (S)-2-(5-amino-5,7-dihydrospiro[cyclopenta[b]pyridine-6,4′-piperidin]-1′-yl)-5-(2,3-dichlorophenyl)-3,7-dihydro-4H-pyrrolo[2,3-d]pyrimidin-4-one] | 78% | 
Cn1c(N2CCC3(CC2)Cc2ccccc2[C@H]3N)nc(N)c(Sc2ccnc(N)c2Cl)c1=O [Example 40] | 68% | 
Cc1cccc(-c2ncc(N3CCC4(CC3)Cc3ccc(Br)cc3[C@H]4N)nc2N)c1Cl [Example 45, (S)-1′-(6-amino-5-(2-chloro-3-methylphenyl)pyrazin-2-yl)-6-bromo-1,3-dihydrospiro[indene-2,4′-piperidin]-1-amine] | 78% | 
Cc1cccc(-c2ncc(N3CCC4(CC3)Cc3ccc(N)cc3[C@H]4N)nc2N)c1Cl [Example 47, (S)-1′-(6-amino-5-(2-chloro-3-methylphenyl)pyrazin-2-yl)-1,3-dihydrospiro[indene-2,4′-piperidine]-1,6-diamine] | 56% | 
N[C@@H]1c2ccccc2CC12CCN(c1cnc3c(N4CCCc5ncccc54)n[nH]c3n1)CC2 [Example 50, (S)-1′-(3-(3,4-dihydro-1,5-naphthyridin-1(2H)-yl)-1H-pyrazolo[3,4-b]pyrazin-6-yl)-1,3-dihydrospiro[indene-2,4′-piperidin]-1-amine] | 86% | 
ethyl (S)-3-(1-amino-1,3-dihydrospiro[indene-2,4′-piperidin]-1′-yl)-6-(2,3-dichlorophenyl)-5--2-carboxylate [Example 1] |  | 82%
